Experimental data published in patent US11028077B2, “Crystalline pharmaceutical and methods of preparation and use thereof” (NOVARTIS PHARMACEUTICALS CORPORATION, priority 2008, dated 2021).
Like-named read-outs stand apart in the source and are kept apart here.

Legend:
[1] = test system: human mononuclear cells (PBMC) stimulated with staphylococcal enterotoxin B (SEB); experiment: cells; format: cell-based
[2] = test system: attachment of Jurkat cells to ICAM-1; experiment: T-cell adhesion assay using Jurkat cells; format: cell-based, human
Description: A reported LFA-1 antagonist was used as the positive control.
Jurkat cells were labeled with an 8 μM solution of BCECF-AM (2′,7′-bis-(2-carboxyethyl)-5-(and-6)-carboxyfluorescein) in growth media at room temperature for 15 minutes. […] Non-adherent cells were removed by washing and centrifugation at 100 g for 1 minute. Adherent cells were determined as adherent fluorescent units on a fluorescent plate reader.

[3] = test system: SEB stimulated IL-2 release in whole human blood; experiment: cells; format: cell-based; settings: read-out: IC50, inhibition of SEB stimulated IL-2 release
[4] = test system: cell attachment and SEB IL-2 release; experiment: cells; format: cell-based
CD-1 (ICR) BR mice = experiment: In vivo mouse bone marrow micronucleus assay; settings: repeated IV administrations
dogs [5] = experiment: Acute toxicity, escalating single dose IV and 7-day repeated dose with TK in dogs; format: in vivo, dog; settings: escalating single dose IV and 7-day repeated dose
Description: 4. Acute Toxicity Studies: For single dose IV in rats, the no observable adverse effect level (NOAEL) was 10 mg/kg IV. For escalating single dose IV and 7-day repeated dose with TK (toxicokinetics) in dogs, the NOAEL was 10 mg/kg IV. For single dose ocular tolerance in rabbits, the NOAEL was 3.5 mg/eye/3× per day (10%).

rabbits = experiment: Single dose ocular tolerance in rabbits; format: in vivo, rabbit; settings: rabbits (10%)
rats = experiment: 13-week IV toxicity study in rats with 4-week recovery (toxicity and plasma exposure); format: in vivo, rat
[6] = Rat ocular pharmacokinetics of [14C]-compound (ocular tissue levels); format: in vivo; settings: rat, for 16 hrs
[7] = Plasma PK after single IV bolus dose in rats; format: in vivo, rat
dogs [8] = experiment: Pilot ocular tolerance / PK of topically administered compound in dogs; format: in vivo, dog; settings: up to 10% strength at 3 doses/day
dogs [9] = experiment: 13-week ocular toxicity study in dogs with 4-week recovery (toxicity and TK); settings: dogs (3%)
[10] = daily IV bolus 3 mg/kg, Week 13
[11] = daily IV bolus 10 mg/kg, Week 13
[12] = daily IV bolus 30 mg/kg, Week 13
[13] = single IV bolus 30.0 mg/kg, from rat safety pharmacology study

`CS(=O)(=O)c1cccc(C[C@H](NC(=O)c2c(Cl)cc3c(c2Cl)CCN(C(=O)c2ccc4ccoc4c2)C3)C(=O)O)c1` [compound of Formula I] showed an EC50 [1] of no more than 0.15 µM, an EC50 ([1]; read-out: EC50 Cytokine Release GM-CSF) of 0.545 µM and an EC50 ([1]; read-out: EC50 Cytokine Release IFNγ) of 0.0016 µM. For the same compound, the EC50 ([1]; read-out: EC50 Cytokine Release IL-1α) was 0.24 µM, the EC50 ([1]; read-out: EC50 Cytokine Release IL-1β) was 0.36 µM and the EC50 ([1]; read-out: EC50 Cytokine Release IL-2) was 0.0018 µM. The EC50 ([1]; read-out: EC50 Cytokine Release IL-3) was 52.2 µM, the EC50 ([1]; read-out: EC50 Cytokine Release IL-4) was 0.143 µM and the EC50 ([1]; read-out: EC50 Cytokine Release IL-5) was 0.11 µM. It also gave an EC50 ([1]; read-out: EC50 Cytokine Release IL-6) of 43.5 µM, an EC50 ([1]; read-out: EC50 Cytokine Release IL-10) of 0.147 µM and an EC50 ([1]; read-out: EC50 Cytokine Release IL-12p40) greater than 1000 µM. The EC50 ([1]; read-out: EC50 Cytokine Release IL-13) was 0.36 µM, the EC50 ([1]; read-out: EC50 Cytokine Release IP-10) was 1.16 µM and the EC50 ([1]; read-out: EC50 Cytokine Release MCP-1) was 0.005 µM. For the same compound, the EC50 ([1]; read-out: EC50 Cytokine Release MIP-1α) was 0.02 µM, the EC50 ([1]; read-out: EC50 Cytokine Release TNF-α) was 0.076 µM and the “Jurkat cell attachment to ICAM-1” value [2] was “inhibition of Jurkat cell attachment with increasing dose”. The “dose response curve and IC50” value ([2]; compared with positive control, a reported LFA-1 antagonist) was “comparable to that of the known direct competitive LFA-1 antagonist”, the IC50 [3] was 0.069 µM and the IC50 [4] was 0.002 µM. The “micronuclei in polychromatic erythrocytes” value (CD-1 (ICR) BR mice) was “negative”, the NOAEL (dogs [5]) was 10 mg/kg and the NOAEL (rabbits) was 3.5 mg/eye/3× per day. For the same compound, the AUC0-n (rats; daily IV bolus 3 mg/kg, Day 1) was 148.3 ng·h/mL, the Cmax (rats; daily IV bolus 3 mg/kg, Day 1) was 305.2 ng/mL and the AUC0-n (rats; [10]) was 241.4 ng·h/mL. The Cmax (rats; [10]) was 377.5 ng/mL, the AUC0-n (rats; daily IV bolus 10 mg/kg, Day 1) was 535.6 ng·h/mL and the Cmax (rats; daily IV bolus 10 mg/kg, Day 1) was 1045.3 ng/mL. For the same compound, the AUC0-n (rats; [11]) was 907.1 ng·h/mL, the Cmax (rats; [11]) was 1691.5 ng/mL and the AUC0-n (rats; daily IV bolus 30 mg/kg, Day 1) was 2345.5 ng·h/mL. The Cmax (rats; daily IV bolus 30 mg/kg, Day 1) was 5117.3 ng/mL, the AUC0-n (rats; [12]) was 7471.5 ng·h/mL and the Cmax (rats; [12]) was 16932.8 ng/mL. The levels in conjunctiva/cornea [6] was greater than 100 nM, the AUC0-n ([7]; single IV bolus 10.0 mg/kg) was 728 ng·h/mL and the CL ([7]; single IV bolus 10.0 mg/kg) was 173 mL/min/kg. For the same compound, the Cmax ([7]; single IV bolus 10.0 mg/kg) was 1056 ng/mL, the MRT ([7]; single IV bolus 10.0 mg/kg) was 0.920 h and the T1/2 ([7]; single IV bolus 10.0 mg/kg) was 3.76 h. For the same compound, the Vss ([7]; single IV bolus 10.0 mg/kg) was 9.56 L/kg, the AUC0-n [7, 13] was 2345.5 ng·h/mL and the Cmax [7, 13] was 5117.3 ng/mL. The “ocular safety and tolerability” value (dogs [8]) was “safe and well tolerated” and the NOAEL (dogs [9]) was 1.05 mg/eye/3× per day.
